# pIC50: −log10 of the molar value. Active and inactive are the calls of the source. No cut-off for these calls is given here.
# Tests used:
# [1] = Inhibition of HIV1 integrase assessed as reduction in LEDGF-independent integration pre-incubated for 1 hr before addition of DNA donor and acceptor substrate and measured after 90 mins by HTRF assay; set-up: species or system Human immunodeficiency virus 1
# [2] = test system: Human immunodeficiency virus 1; experiment: Binding affinity to HIV1 integrase assessed as conjugation of enzyme at 7.5 to 25 uM in presence of UV illumination for 15 mins by SDS-PAGE analysis based photoaffinity labelling method; settings: dose microM 7.5-25, time 15.0 min
# [3] = test system: Human immunodeficiency virus 1; experiment: Binding affinity to HIV1 integrase assessed as induction of enzyme molecular weight shift at 7.5 to 25 uM in presence of UV illumination for 15 mins by LC-MS analysis; settings: dose microM 7.5-25, time 15.0 min
# [4] = test system: Human immunodeficiency virus 1; experiment: Binding affinity to HIV1 integrase assessed as induction of cross-linking at peptide region 164ELK166 at 7.5 to 25 uM in presence of UV illumination for 15 mins in presence of trypsin by LC-MS analysis; settings: dose microM 7.5-25, time 15.0 min
# [5] = test system: Human immunodeficiency virus 1; experiment: Binding affinity to HIV1 integrase assessed as induction of cross-linking at peptide region 42EIVASCDK49 at 7.5 to 25 uM in presence of UV illumination for 15 mins in presence of trypsin by LC-MS analysis; settings: dose microM 7.5-25, time 15.0 min
Structure (SMILES),pIC50 [1],Activity [2],Activity [3],Activity [4],Activity [5]
CC(C)c1nc(C(=O)O)c(O)c(=O)n1C,4.14,,,,
CC(C)c1nc(C(=O)NCc2ccc(C(=O)c3ccccc3)cc2)c(O)c(=O)n1C,5.64,Active,Active,Active,Active
Cc1nnc(C(=O)NC(C)(C)c2nc(C(=O)NCc3ccc(F)cc3)c(O)c(=O)n2C)o1 [RALTEGRAVIR],7.24,,,,

# Source: ChEMBL document CHEMBL4725446, “Development of a Raltegravir-based Photoaffinity-Labeled Probe for Human Immunodeficiency Virus-1 Integrase Capture” (ACS Med Chem Lett, 2020)
